Like-named read-outs stand apart in the source and are kept apart here.
Target: T1, APOL1 G1 (Homo sapiens, UniProt O14791, I384M/S342G)
T1 sequence (O14791 28-398 S342G/I384M): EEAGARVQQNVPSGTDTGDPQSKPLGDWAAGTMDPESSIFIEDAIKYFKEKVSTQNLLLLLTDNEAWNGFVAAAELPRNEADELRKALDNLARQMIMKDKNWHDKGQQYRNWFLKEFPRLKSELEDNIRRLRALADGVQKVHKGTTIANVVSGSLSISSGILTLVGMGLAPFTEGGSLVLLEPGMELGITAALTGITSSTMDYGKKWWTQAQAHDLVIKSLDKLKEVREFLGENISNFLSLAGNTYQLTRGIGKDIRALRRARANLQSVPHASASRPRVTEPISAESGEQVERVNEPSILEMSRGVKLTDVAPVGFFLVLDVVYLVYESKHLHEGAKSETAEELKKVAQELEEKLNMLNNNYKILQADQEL
Assay: MultiTox-Fluor Multiplex Cytotoxicity Assay, tet-inducible APOL1 G1 T-REx-HEK293 cells
Type: cell-based
Set-up: expressed in transfected cells; host or cells: T-REx HEK293, clone G1 DC3.25 (pAAVS1-Puro-APOL1 G1)
Details: for IC90: HEK293, Multi-Tox Assay, APOL1 variant (G0/G1/G2) of the HEK293 cells not given, read-out: Multi-Tox Assay IC90; for Emax: read-out: Multi-Tox Assay Max Activity (%)
In short: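 T-REx-HEK293 cells carrying tet-inducible APOL1 G1 induced with 50 ng/mL tet alongside compound (top 10 µM, 10-point 3-fold, duplicate) for 24 h at 37 °C. MultiTox-Fluor dead/live protease fluorescence ratio read after 30 min; normalized to no-tet (100% viability) and tet-treated (0%) controls, then curve-fitted.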

[1] = Multi-Tox Assay, APOL1 variant not given

Row | Compound | IC90 | Emax | Multi-Tox Assay Max Activity (%) [1] | Emax [1]
1 | C[C@H]1C[C@@]2(C[C@@H](c3cnn(C4CCS(=O)(=O)C4)c3)N1)OCCc1cc(Cl)sc12 (some centres unmarked) [Compound 97] | < 50 nM | 99% |  | 
2 | C[C@H]1C[C@@]2(C[C@@H](c3cc(C4CCOCC4)[nH]n3)N1)OCCc1cc(Cl)sc12 [Compound 114] | 50 to 500 nM |  | 99.7% | 
3 | C[C@H]1C[C@@]2(C[C@@H](c3cc(C(F)(F)F)[nH]n3)N1)OCCc1cc(Cl)sc12 [Compound 119] | 50 to 500 nM |  | 99.7% | 
4 | CC1CC2(CC(c3cn(CC4CC4)nn3)N1)OCCc1cc(Cl)sc12 (centres unmarked) [Compound 122] | 50 to 500 nM |  | 99.7% | 
5 | C[C@H]1C[C@@]2(C[C@@H](c3cccn4ccnc34)N1)OCCc1cc(Cl)sc12 [Compound 143] | 50 to 500 nM |  | 98.0% | 
6 | C[C@H]1C[C@@]2(C[C@@H](c3cn(C)nn3)N1)OC[C@@H](O)c1cc(Cl)sc12 [Compound 174, (2'S, 4S, 6'S, 7S)-2-chloro-2'-methyl-6'-(1-methyltriazol-4-yl)spiro[4,5-dihydrothieno[2,3-c]pyran-7,4'-piperidine]-4-ol] | < 50 nM |  |  | 99.8%
7 | C[C@H]1C[C@@]2(C[C@@H](c3cn(C)nn3)N1)OC[C@H](O)c1cc(Cl)sc12 [Compound 177, (2'S,4R,6'S,7S)-2-chloro-2'-methyl-6'-(1-methyltriazol-4-yl)spiro[4,5-dihydrothieno[2,3-c]pyran-7,4'-piperidine]-4-ol] | < 50 nM |  |  | 100%
8 | C[C@H]1C[C@@]2(C[C@@H](c3cn(C)nn3)N1)OC[C@H](O)c1cc(C(F)(F)F)sc12 [Compound 180] | < 50 nM |  |  | 99.8%
9 | C[C@H]1C[C@@]2(C[C@@H](c3cn(C)nn3)N1)OC[C@@H](O)c1cc(C(F)(F)F)sc12 [Compound 181, (2S,4S,4'S,6S)-2-methyl-6-(1-methyl-1H-1,2,3-triazol-4-yl)-2'-(trifluoromethyl)-4',5'-dihydrospiro[piperidine-4, 7'-thieno[2,3-c]pyran]-4'-ol] | < 50 nM |  |  | 99.8%
10 | C[C@H]1C[C@@]2(C[C@@H](c3cn(C)nn3)N1)OC[C@@H](O)c1sc(Cl)cc12 [Compound 182] | < 50 nM |  |  | 100%
11 | C[C@H]1C[C@@]2(C[C@@H](c3cn(C)nn3)N1)OCC(F)(F)c1cc(Cl)sc12 [Compound 183, (2'S, 6'S, 7S)-2-chloro-4,4-difluoro-2'-methyl-6'-(1-methyltriazol-4-yl)spiro[5H-thieno[2,3-c]pyran-7,4'-piperidine]] | < 50 nM |  |  | 99.5%
12 | Cn1cc(C2CC3(CC(C4CCC4)N2)OCCc2cc(Cl)sc23)nn1 (centres unmarked) [Compound 189] | > 500 nM |  |  | 97%
13 | COCC1CC2(CC(c3cn(C)nn3)N1)OCCc1cc(Cl)sc12 (centres unmarked) [Compound 190] | 50 to 500 nM |  |  | 99%
14 | CC(C)C1CC2(CC(c3cn(C)nn3)N1)OCCc1cc(C(F)(F)F)sc12 (centres unmarked) [Compound 191] | 50 to 500 nM |  |  | 99.7%
15 | Cn1cc(C2CC3(CC(C4CCC4)N2)OCCc2cc(C(F)(F)F)sc23)nn1 (centres unmarked) [Compound 192] | 50 to 500 nM |  |  | 99%
16 | COCC1CC2(CC(c3cn(C)nn3)N1)OCCc1cc(C(F)(F)F)sc12 (centres unmarked) [Compound 193] | 50 to 500 nM |  |  | 99%
17 | C[C@H]1CC2(C[C@H](C)N1)OCCc1sc(C(F)(F)F)cc12 (some centres unmarked) [Compound 195] | > 500 nM |  |  | 76%
18 | C[C@H]1C[C@@]2(C[C@@H](CC3CCOCC3)N1)OCCc1cc(Cl)sc12 [Compound 219, (2S,6R)-2-chloro-2'-methyl-6'-(tetrahydropyran-4-ylmethyl)spiro[4,5-dihydrothieno[2,3-c]pyran-7,4'-piperidine]] | > 500 nM |  |  | 88.7%
19 | C[C@H]1C[C@@]2(C[C@@H](C3CC3)N1)OCC(O)c1cc(Cl)sc12 (stereo partly drawn) [Compound 220, (2'S,6'S,7S)-2-chloro-2'-cyclopropyl-6'-methyl-spiro[4,5-dihydrothieno[2,3-c]pyran-7,4'-piperidine]-4-ol] | < 50 nM |  |  | 99.3%
